Experiments:
[1] = target: T1, hTLR7 (Homo sapiens, UniProt Q9NYK1); assay: Human TLR7 Reporter Assay; format: cell-based; details: HEK-Blue hTLR7 cells, 16 hours, normalized to CL097 (6 μM) and DMSO
T1 construct: host or cells: HEK-Blue hTLR7 cells (HEK293-derived, own knowledge)
T1 sequence (Q9NYK1 27-1049): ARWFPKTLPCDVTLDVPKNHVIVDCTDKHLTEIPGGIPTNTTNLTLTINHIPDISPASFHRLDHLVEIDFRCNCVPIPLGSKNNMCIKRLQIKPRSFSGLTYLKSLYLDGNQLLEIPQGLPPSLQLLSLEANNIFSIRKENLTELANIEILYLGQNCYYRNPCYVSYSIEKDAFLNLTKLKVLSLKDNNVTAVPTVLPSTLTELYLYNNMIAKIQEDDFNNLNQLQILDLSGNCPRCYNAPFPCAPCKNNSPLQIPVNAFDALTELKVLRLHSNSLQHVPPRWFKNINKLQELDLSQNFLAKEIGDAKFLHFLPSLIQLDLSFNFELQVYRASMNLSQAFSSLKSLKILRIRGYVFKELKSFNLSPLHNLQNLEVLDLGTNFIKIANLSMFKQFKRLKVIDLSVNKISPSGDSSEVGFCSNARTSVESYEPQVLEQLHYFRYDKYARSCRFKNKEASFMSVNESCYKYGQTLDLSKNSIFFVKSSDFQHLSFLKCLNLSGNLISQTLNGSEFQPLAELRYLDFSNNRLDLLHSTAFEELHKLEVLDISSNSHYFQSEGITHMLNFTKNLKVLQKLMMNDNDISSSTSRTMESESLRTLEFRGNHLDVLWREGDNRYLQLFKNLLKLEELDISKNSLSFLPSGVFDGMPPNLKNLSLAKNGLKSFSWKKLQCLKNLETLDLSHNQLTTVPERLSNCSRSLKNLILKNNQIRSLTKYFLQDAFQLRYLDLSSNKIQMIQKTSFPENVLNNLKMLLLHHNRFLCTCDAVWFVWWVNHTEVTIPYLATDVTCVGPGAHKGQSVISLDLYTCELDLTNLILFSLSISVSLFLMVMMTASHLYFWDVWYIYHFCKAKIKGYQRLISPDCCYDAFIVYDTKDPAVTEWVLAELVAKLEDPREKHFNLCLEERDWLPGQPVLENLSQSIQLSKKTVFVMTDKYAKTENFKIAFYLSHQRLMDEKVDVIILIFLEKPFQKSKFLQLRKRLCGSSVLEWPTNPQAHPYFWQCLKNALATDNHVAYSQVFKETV
Summary of the method: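 HEK-Blue hTLR7 reporter cells (20,000/well) incubated 16 h at 37 °C with 10-point 3-fold compound dilutions; SEAP read by absorbance at 620 nm. Effects normalized between CL097 (6 μM) and DMSO controls; EC50 from 4-parameter fit.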

[2] = target: T2, hTLR8 (Homo sapiens, UniProt Q9NR97); assay: Human TLR8 Reporter Assay; format: cell-based; details: HEK-Blue hTLR8 cells, 16 hours, normalized to tl8-506 (1 μM) and DMSO
T2 construct: host or cells: HEK-Blue hTLR8 cells (HEK293-derived, own knowledge)
T2 sequence (Q9NR97 27-1041): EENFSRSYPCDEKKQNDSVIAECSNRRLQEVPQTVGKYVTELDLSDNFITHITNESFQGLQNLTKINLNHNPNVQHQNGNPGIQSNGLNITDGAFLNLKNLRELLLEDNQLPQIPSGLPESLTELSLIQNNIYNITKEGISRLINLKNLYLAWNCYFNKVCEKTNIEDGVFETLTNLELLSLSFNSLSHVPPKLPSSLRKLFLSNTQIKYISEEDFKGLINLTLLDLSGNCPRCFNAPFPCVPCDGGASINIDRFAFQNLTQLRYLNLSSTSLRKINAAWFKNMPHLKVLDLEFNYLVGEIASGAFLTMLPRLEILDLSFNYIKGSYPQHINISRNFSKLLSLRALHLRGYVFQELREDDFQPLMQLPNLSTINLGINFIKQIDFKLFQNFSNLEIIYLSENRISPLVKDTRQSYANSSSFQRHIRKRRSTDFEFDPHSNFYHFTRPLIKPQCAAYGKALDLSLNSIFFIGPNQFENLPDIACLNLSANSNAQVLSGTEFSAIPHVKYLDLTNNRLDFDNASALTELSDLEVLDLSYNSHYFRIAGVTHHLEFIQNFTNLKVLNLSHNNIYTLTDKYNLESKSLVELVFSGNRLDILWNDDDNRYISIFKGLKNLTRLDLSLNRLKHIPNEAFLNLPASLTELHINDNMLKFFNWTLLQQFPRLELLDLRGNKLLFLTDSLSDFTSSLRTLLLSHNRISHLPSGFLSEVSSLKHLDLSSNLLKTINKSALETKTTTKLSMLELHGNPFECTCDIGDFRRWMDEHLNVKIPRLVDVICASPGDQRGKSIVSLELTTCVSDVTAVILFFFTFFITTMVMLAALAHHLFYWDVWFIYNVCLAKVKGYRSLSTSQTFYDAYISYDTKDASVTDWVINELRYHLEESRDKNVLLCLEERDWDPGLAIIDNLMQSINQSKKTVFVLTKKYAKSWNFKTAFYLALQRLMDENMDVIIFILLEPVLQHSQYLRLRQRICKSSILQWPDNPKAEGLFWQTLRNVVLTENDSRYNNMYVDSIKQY
Summary of the method: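 HEK-Blue hTLR8 cells (20,000/well) incubated 16 h at 37 °C with 10-point 3-fold compound dilutions in HEK-Blue Detection medium; reporter read as absorbance at 620 nm. Effects normalized between DMSO and tl8-506 (1 μM); EC50 from 4-parameter fit.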

EC50 [1] [nM]	EC50 [2] [nM]	SMILES
382	103	C=CCN(C)Cc1cnc(Cn2cc3nc(N)nc(N[C@H](CO)CCC)c3n2)c(OC)c1 [Compound 185]
1360	4680	CCCCNc1nc(N)nc2cn(Cc3nc(CNC)oc3C)nc12 [Compound 165]
354	3470	CCCCNc1nc(N)nc2cn(Cc3ccc(C4CCNC4=O)cc3)nc12 (stereo not drawn) [Compound 202]
29.3	116	CCC[C@@H](CO)Nc1nc(N)nc2cn(Cc3c(OC)cccc3OC)nc12 [Compound 108]
213	3020	CCC[C@H](CO)Nc1nc(N)nc2cn(Cc3c(OC)cccc3OC)nc12 [Compound 107]
464	1890	CCCNc1nc(N)nc2cn(Cc3c(OC)cccc3OC)nc12 [Compound 26]
361	2470	CCCCNc1nc(N)nc2cn(Cc3ccc4c(c3)CCC4N)nc12 (stereo not drawn) [Compound 235]
7290	> 29900	COc1cccc(OC)c1Cn1cc2nc(N)nc(NCC(C)O)c2n1 (stereo not drawn) [Compound 49]
139	137	CCCCNc1nc(N)nc2cn(Cc3ccc(C(C)NC)cc3OC)nc12 (stereo not drawn) [Compound 194]
3100	> 29900	CCCCNc1nc(N)nc2cn(CCc3ccccc3OC)nc12 [Compound 36]
370	734	CCC[C@@H](CO)Nc1nc(N)nc2cn(Cc3ccccc3OC)nc12 [Compound 130]
246	2730	CCCCNc1nc(N)nc2cn(Cc3cc(C)nn3C)nc12 [Compound 173]
120	611	CCCCNc1nc(N)nc2cn(Cc3ccncc3OC)nc12 [Compound 93]
597	> 29900	CCCCNc1nc(N)nc2cn(Cc3c(OC)cc(CNC(=O)C4CCC(CN5C(=O)C=CC5=O)CC4)cc3OC)nc12 (stereo not drawn) [Compound 72]
1060	3140	CCC[C@@H](CO)Nc1nc(N)nc2cn(Cc3ccc(N4CCN(C(=O)C5CCC(CN6C(=O)C=CC6=O)CC5)CC4)cc3OC)nc12 (stereo partly drawn) [Compound 153]
20	63.3	C=CCN(C)Cc1cc(OC)c(Cn2cc3nc(N)nc(N[C@H](C)CCC)c3n2)c(OC)c1 [Compound 187]
2260	11600	CCCCNc1nc(N)nc2cn(Cc3c(OC)cc(CNC(=O)C4CCC(CN5C(=O)CC(SC[C@H](N)C(=O)O)C5=O)CC4)cc3OC)nc12 (stereo partly drawn) [Compound 92]
496	> 29900	COc1cccc(OC)c1Cn1cc2nc(N)nc(NCCCC(C)C)c2n1 [Compound 54]
174	1340	CCCC(Nc1nc(N)nc2cn(Cc3c(OC)cccc3OC)nc12)C(F)F (stereo not drawn) [Compound 136]
633	1380	CCCCNc1nc(N)nc2cn(Cc3ncc(N4CCNCC4)cc3OC)nc12 [Compound 99]
2650	2560	CCCCNc1nc(N)nc2cn(Cc3c(OC)ccc(CN4CCNCC4)c3OC)nc12 [Compound 78]
3650	2250	CCC[C@@H](CO)Nc1nc(N)nc2cn(Cc3c(OC)cc(C(C)N)cc3OC)nc12 (stereo partly drawn) [Compound 224]
843	> 29900	COc1cccc(OC)c1Cn1cc2nc(N)nc(NCC(C)C)c2n1 [Compound 50]

EC50 [1] [nM]	EC50 [2] [nM]	SMILES
214	1010	CCCCCNc1nc(N)nc2cn(Cc3c(OC)cccc3OC)nc12 [Compound 28]
249	144	CCCCNc1nc(N)nc2cn(Cc3ccc(CN4CC(CN)C4)cc3OC)nc12 [Compound 118]
112	2220	C=CC(=O)NC[C@H]1CC[C@H](C(=O)N2CCN(c3ccc(Cn4cc5nc(N)nc(NCCCC)c5n4)c(OC)c3)CC2)CC1 [Compound 120]
190	3640	CCCCNc1nc(N)nc2cn(Cc3ccc(N4CCN(C(=O)C5CCC(CN6C(=O)C=CC6=O)CC5)CC4)cc3OC)nc12 (stereo not drawn) [Compound 68]
743	880	CCCCNc1nc(N)nc2cn(Cc3ccc(N4CCNCC4)cn3)nc12 [Compound 123]
292	2040	CCCCNc1nc(N)nc2cn(Cc3ccc(CN4C(=O)C=CC4=O)cc3OC)nc12 [Compound 104]
2370	7020	CCCCNc1nc(N)nc2cn(Cc3ccc(C(N)CCN)cc3OC)nc12 (stereo not drawn) [Compound 228]
171	1500	CCCCNc1nc(N)nc2cn(Cc3scnc3C)nc12 [Compound 181]
50.8	2410	CCCCNc1nc(N)nc2cnn(Cc3c(OC)cc(CN4CCNCC4)cc3OC)c12 [Compound 63]
68.6	710	CCCCNc1nc(N)nc2cn(Cc3c(F)cccc3F)nc12 [Compound 41]
516	2520	CCCCNc1nc(N)nc2cn(Cc3cc(C)no3)nc12 [Compound 171]
119	1020	CCCCNc1nc(N)nc2cn(Cc3c(OC)cc(N)cc3OC)nc12 [Compound 65]
110	168	CCCC(C)Nc1nc(N)nc2cn(Cc3c(OC)cc(CNC)cc3OC)nc12 (stereo not drawn) [Compound 164]
294	455	CCCCNc1nc(N)nc2cn(Cc3ccc(CC(C)N)cc3OC)nc12 (stereo not drawn) [Compound 178]
118	170	CCCCNc1nc(N)nc2cn(Cc3ccc(C(C)N(C)C)cc3OC)nc12 (stereo not drawn) [Compound 220]
370	590	CCCCNc1nc(N)nc2cn(Cc3cc(CNC)ccc3OC)nc12 [Compound 148]
490	1530	CCCCNc1nc(N)nc2cn(Cc3c(OC)ccc(N)c3OC)nc12 [Compound 77]
254	1880	CCCCNc1nc(N)nc2cn(Cc3ccc4c(c3)CCC4N)nc12 (stereo not drawn) [Compound 238]
2800	> 29900	COc1cccc(OC)c1Cn1cc2nc(N)nc(NCCC(C)O)c2n1 (stereo not drawn) [Compound 52]
1620	1640	CCC[C@@H](CO)Nc1nc(N)nc2cn(Cc3ccc(N4CCNCC4)cc3OC)nc12 [Compound 150]
90	290	CCC[C@@H](C)Nc1nc(N)nc2cn(Cc3c(OC)cc(CNC)cc3OC)nc12 [Compound 189]
2520	> 29900	CCCCNc1nc(N)nc2cn(CC3CCCCC3)nc12 [Compound 7]
